Experimental data reported in patent publication US20170107203A1, “HETEROCYCLIC INHIBITORS OF THE SODIUM CHANNEL” (EPIRUS BIOPHARMACEUTICALS, INC., priority 2014, published 2017).

Molecular target: T1, human Nav1.7 (Homo sapiens, UniProt Q15858)
T1 construct: expressed in transfected cells
Experiment: Assessment of Nav1.7 activity on PatchXpress (voltage dependence / slow inactivation parameters)
Assay type: cell-based
Conditions: compound at 10 μM, relative to 0.2% DMSO vehicle control; for hNav1.7: Reduction in current at 20 mV (normalized data) Delta Ratio: before/after 30 sec conditioning pulse at 20 mV; for hNav1.7: Shift in voltage dependence of inactivation (mV) Delta Vhalf: PatchXpress
Method in brief: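 HEK293F cells stably co-expressing hNav1.7 and β1 were recorded by automated patch clamp in TEA-based external solution (50 mM NaCl, pH 7.4) with CsF internal solution (pH 7.2). A variable conditioning prepulse inactivated channels, followed by a brief hyperpolarizing step and a depolarizing test pulse. Compounds at 10 μM were compared with 0.2% DMSO vehicle across four parameters.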

T1 sequence (Q15858 whole entry): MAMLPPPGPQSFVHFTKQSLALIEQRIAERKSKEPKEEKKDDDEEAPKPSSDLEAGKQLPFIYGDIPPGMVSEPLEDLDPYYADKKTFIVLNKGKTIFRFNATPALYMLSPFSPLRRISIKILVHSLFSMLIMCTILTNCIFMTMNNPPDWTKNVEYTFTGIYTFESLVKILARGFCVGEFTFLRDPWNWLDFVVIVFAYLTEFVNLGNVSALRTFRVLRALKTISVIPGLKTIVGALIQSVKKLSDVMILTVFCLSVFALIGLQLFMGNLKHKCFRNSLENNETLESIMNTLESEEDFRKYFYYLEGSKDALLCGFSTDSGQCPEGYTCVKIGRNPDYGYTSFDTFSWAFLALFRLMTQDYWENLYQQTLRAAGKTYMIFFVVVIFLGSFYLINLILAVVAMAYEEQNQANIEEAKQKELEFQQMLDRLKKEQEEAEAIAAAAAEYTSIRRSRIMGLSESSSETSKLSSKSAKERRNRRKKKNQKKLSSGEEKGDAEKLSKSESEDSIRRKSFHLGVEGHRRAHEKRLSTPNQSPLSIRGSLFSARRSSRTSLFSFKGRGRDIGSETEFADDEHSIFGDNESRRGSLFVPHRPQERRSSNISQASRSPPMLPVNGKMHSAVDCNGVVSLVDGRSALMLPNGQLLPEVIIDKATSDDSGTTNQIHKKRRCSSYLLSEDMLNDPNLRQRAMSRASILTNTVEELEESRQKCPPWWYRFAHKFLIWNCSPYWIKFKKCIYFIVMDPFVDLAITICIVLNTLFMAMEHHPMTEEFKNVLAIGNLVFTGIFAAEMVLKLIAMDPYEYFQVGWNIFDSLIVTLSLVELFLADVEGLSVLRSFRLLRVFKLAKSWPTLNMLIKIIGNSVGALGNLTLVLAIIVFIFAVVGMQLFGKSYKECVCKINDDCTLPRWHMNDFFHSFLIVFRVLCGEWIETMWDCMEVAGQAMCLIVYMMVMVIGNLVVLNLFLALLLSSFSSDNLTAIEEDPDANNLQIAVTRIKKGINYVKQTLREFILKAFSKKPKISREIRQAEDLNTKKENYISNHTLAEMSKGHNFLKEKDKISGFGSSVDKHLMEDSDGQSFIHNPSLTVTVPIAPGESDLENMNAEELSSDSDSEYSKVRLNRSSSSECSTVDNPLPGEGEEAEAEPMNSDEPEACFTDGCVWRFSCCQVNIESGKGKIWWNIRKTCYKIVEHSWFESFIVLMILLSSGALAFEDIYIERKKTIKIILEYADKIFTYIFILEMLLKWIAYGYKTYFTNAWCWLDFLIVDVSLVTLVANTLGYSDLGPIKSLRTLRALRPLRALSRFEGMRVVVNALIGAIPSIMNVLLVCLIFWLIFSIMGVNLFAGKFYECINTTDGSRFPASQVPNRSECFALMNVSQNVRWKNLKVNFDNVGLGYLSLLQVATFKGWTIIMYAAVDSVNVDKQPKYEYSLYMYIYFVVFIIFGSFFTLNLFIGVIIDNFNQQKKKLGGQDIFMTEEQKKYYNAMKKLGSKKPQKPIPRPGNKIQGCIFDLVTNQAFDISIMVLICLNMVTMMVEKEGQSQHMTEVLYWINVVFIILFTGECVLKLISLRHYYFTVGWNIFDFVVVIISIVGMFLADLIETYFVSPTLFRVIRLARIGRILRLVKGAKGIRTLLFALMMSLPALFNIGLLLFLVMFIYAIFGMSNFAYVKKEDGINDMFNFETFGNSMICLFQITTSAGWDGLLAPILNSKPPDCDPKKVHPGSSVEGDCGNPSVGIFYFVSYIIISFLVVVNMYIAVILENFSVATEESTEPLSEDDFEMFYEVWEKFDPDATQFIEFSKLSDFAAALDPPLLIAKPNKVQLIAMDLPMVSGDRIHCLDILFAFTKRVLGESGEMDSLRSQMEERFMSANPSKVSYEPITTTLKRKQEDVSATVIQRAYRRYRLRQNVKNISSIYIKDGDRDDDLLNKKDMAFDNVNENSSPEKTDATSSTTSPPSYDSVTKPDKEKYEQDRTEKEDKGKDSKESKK
T1 sequence (Q07699 19-218 partner): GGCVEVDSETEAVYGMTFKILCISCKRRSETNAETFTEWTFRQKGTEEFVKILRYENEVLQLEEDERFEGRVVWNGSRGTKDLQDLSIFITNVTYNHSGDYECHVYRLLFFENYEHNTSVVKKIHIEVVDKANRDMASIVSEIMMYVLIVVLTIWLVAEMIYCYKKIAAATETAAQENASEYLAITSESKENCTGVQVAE

Row | Compound | hNav1.7: Reduction in current at 20 mV (normalized data) Delta Ratio | hNav1.7: Voltage dependence of activation (mV) VDEP | hNav1.7: Voltage dependence of fast inactivation (mV) VDEP | hNav1.7: Shift in voltage dependence of inactivation (mV) Delta Vhalf
1 | O=C1CNCCN1CCCc1nc2cc(C(F)(F)F)cc(C(F)(F)F)c2[nH]1 [Compound 69] | −0.09 | −9.2 mV | −4.9 mV | −7.5 mV
2 | N[C@@H](c1ccc(F)cc1)c1nc2cc(C(F)(F)F)cc(C(F)(F)F)c2[nH]1 [Compound 58, (S)-(4,6-bis(trifluoromethyl)-1H-benzo[d]imidazol-2-yl)(4-fluorophenyl)methanamine] | −0.21 | −4 mV | −4.9 mV | −8.6 mV
3 | N[C@H](Cc1cccc(C(F)(F)F)c1)C(=O)NCc1nc2ccc(-c3ccc(F)c(Cl)c3)cc2[nH]1 [Compound 71, (R)-2-amino-N-((6-(3-chloro-4-fluorophenyl)-1H-benzo[d]imidazol-2-yl)methyl)-3-(3-(trifluoromethyl)phenyl)propanamide] | −0.07 | −10.5 mV | −6.3 mV | −8.5 mV
4 | N[C@@H](Cc1ccccc1)Cc1nc2cc(C(F)(F)F)cc(C(F)(F)F)c2[nH]1 [Compound 53, (S)-1-(4,6-bis(trifluoromethyl)-1H-benzo[d]imidazol-2-yl)-3-phenylpropan-2-amine] | −0.28 | −8.2 mV | −3.9 mV | −7.2 mV
5 | O=C(NCCOc1cc(F)cc(C(F)(F)F)c1)[C@H]1CCCN1 [Compound 20, (R)-N-(2-(3-fluoro-5-(trifluoromethyl)phenoxy)ethyl) pyrrolidine-2-carboxamide] | −0.01 | −6.80 mV | −4.40 mV | −7.20 mV
6 | Cc1cccc(C)c1OCC(C)NC(=O)C(C)(C)N1CCNCC1=O (stereo not drawn) [Compound 37, N-(1-(2,6-dimethylphenoxy)propan-2-yl)-2-methyl-2-(2-oxopiperazin-1-yl)propanamide] | −0.09 | −9.00 mV | −6.30 mV | −5.00 mV
7 | N[C@H](Cc1cccc(C(F)(F)F)c1)C(=O)NCc1nc2ccc(Br)cc2[nH]1 [Compound 74, (R)-2-amino-N-((6-bromo-1H-benzo[d]imidazol-2-yl)methyl)-3-(3-(trifluoromethyl)phenyl)propanamide] | −0.07 | −3.7 mV | −8.8 mV | −7.4 mV
8 | O=C(NCCc1c[nH]c2ccc(F)cc12)[C@@H]1CCCN1 [Compound 48, (S)-N-(2-(5-fluoro-1H-indol-3-yl)ethyl)pyrrolidine-2-carboxamide] | −0.01 | −4.80 mV | −3.00 mV | −1.80 mV
9 | C[C@@H](NC(=O)[C@@H]1CCCN1)c1ccc(OCC(F)(F)F)cn1 [Compound 82, (S)-N-((R)-1-(5-(2,2,2-trifluoroethoxy)pyridin-2-yl)ethyl)pyrrolidine-2-carboxamide] | −0.02 | −5.6 mV | −8.7 mV | −2.5 mV
